Entries after “also recorded” stand apart in the source; their conditions may differ.
Assays:
F656V hERG = conditions: cited from earlier work
[1] = cited from earlier work
[2] = target: T1, wild-type (WT) hERG channels (Homo sapiens, UniProt Q12809); test: Whole-cell patch clamp of WT IhERG in HEK293 cells at 37 °C; assay type: cell-based; conditions: for Fraction of unblocked IhERG: 6–8 min; for Whole-cell IhERG current density: ~6 min, drug-free control 315.3 ± 56.7
T1 construct: expressed in transfected cells
Protocol: (§1) HEK cells stably or transiently expressing hERG channel constructs were cultured as previously described [[34,37]]. The cells were plated in 40 mm petri dishes at least 48 h before transfection and incubated at 37 °C (5% CO2). Cells were transfected with Lipofectamine™ LTX (Invitrogen) following the manufacturer's instructions. The amount of transfected hERG construct DNA varied between 0.2 and 1.0 μg depending on the level of functional expression (assessed as current magnitudes) of each hERG channel construct. 0.5 to 1.0 μg of CD8 was co-transfected as a transfection-marker and successfully transfected cells were identified using Dynabeads® (Invitrogen). Cells were plated on small sterilized glass shards in 40 mm petri dishes and incubated at 37 °C (5% CO2) for at least 24 h before electrophysiological recording.
(§2) Glass shards containing plated cells were placed in a recording chamber mounted on an inverted microscope (Nikon Diaphot, USA). The cells were continuously superfused with a pre-warmed (37 °C) standard Tyrode's solution containing (in mM) the following: 140 NaCl, 4 KCl, 2.5 CaCl2, 1 MgCl2, 10 Glucose, 5 HEPES (titrated to pH 7.4 with NaOH). […] Patch-pipettes were dialysed with an intracellular solution containing (in mM) the following: 130 KCl, 1 MgCl2, 5 EGTA, 5 MgATP, 10 HEPES (titrated to pH 7.2 with KOH). All recordings were made using an Axopatch 200B amplifier (Axon Instruments, now Molecular Devices) and a CV203BU head-stage. Pipette resistance compensation was between 70 and 80%. […] Data digitization rates were 10–25 kHz during all voltage protocols and an appropriate bandwidth of 2–10 kHz was set on the amplifier.
For statistical analysis, data were subject to the Kolmogorov–Smirnov normality test. Statistical comparisons were made using paired or unpaired two-tailed t tests, Wilcoxon matched pairs signed rank test, Mann–Whitney U test and one way (repeated measures, where indicated) or two way ANOVA, as appropriate.
Block of IhERG was assessed by calculating the reduction in drug of the outward ‘tail’ current at − 40 mV (assessed as the difference in magnitude between peak tail current and instantaneous current activated by the brief (50 ms) depolarization from − 80 to − 40 mV [[24,34,37]]). […] The fractional inhibition at each of four concentrations was calculated using Eq. (1) (supplementary information) and the mean values were plotted as shown in Fig. 1D and then fitted with a standard Hill equation (Eq. (2), supplementary information). […] The low expression and kinetics of some mutant channels included in this study requires that IhERG be studied as an inward current in high (94 mM) [K^+]o [[34,35,37]].
We tested the effect of two concentrations (10 and 100 μM) of each analogue applied from the cell exterior (superfusate) and interior (the latter through the patch-pipette). […] As soon as the whole-cell configuration was achieved the drug molecules were free to diffuse inside the cytoplasm, precluding cells acting as their own control.

[3] = system: feline ventricular E-4031 sensitive delayed rectifier current; conditions: cited from earlier work
L-type calcium current = conditions: cited from earlier work
[4] = system: Kv1.5 V505 mutated to phenylalanine; design: method as in PMID 17872968; conditions: cited from earlier work
F656A hERG [5] = target: T2, F656A hERG (Homo sapiens, UniProt Q12809, F656A); test: Patch clamp of F656A S6 helix mutant IhERG; assay type: cell-based; design: expressed in transfected cells; host or cells: HEK cells; conditions: internal (patch-pipette) application 100 µM, tails at -120 mV, n=8 vs control n=12
Protocol: as §1, §2
To investigate potential binding determinants in the pore region we studied alanine mutants of three residues (G648, Y652 and F656) located within the channel inner cavity on the S6 helix. […]

N588K hERG = N588K hERG (Homo sapiens, UniProt Q12809, N588K); design: expressed in transfected cells; host or cells: HEK cells; conditions: IC50 mutant/IC50 WT; mammalian expression; ref 15 of supplement; cited from earlier work
Y652A hERG = Y652A hERG (Homo sapiens, UniProt Q12809, Y652A); design: expressed in transfected cells; conditions: 300 μM (profound blocking concentration for WT IhERG), Xenopus oocyte expression; cited from earlier work
F656A hERG [6] = target: T2, F656A hERG; conditions: 300 μM (profound blocking concentration for WT IhERG), Xenopus oocyte expression; cited from earlier work
[7] = external application (superfusate) 10 μM
[8] = external application (superfusate) 100 μM
[9] = internal application via patch-pipette 10 μM
[10] = internal application via patch-pipette 100 μM

T2 sequence (Q12809 whole entry F656A): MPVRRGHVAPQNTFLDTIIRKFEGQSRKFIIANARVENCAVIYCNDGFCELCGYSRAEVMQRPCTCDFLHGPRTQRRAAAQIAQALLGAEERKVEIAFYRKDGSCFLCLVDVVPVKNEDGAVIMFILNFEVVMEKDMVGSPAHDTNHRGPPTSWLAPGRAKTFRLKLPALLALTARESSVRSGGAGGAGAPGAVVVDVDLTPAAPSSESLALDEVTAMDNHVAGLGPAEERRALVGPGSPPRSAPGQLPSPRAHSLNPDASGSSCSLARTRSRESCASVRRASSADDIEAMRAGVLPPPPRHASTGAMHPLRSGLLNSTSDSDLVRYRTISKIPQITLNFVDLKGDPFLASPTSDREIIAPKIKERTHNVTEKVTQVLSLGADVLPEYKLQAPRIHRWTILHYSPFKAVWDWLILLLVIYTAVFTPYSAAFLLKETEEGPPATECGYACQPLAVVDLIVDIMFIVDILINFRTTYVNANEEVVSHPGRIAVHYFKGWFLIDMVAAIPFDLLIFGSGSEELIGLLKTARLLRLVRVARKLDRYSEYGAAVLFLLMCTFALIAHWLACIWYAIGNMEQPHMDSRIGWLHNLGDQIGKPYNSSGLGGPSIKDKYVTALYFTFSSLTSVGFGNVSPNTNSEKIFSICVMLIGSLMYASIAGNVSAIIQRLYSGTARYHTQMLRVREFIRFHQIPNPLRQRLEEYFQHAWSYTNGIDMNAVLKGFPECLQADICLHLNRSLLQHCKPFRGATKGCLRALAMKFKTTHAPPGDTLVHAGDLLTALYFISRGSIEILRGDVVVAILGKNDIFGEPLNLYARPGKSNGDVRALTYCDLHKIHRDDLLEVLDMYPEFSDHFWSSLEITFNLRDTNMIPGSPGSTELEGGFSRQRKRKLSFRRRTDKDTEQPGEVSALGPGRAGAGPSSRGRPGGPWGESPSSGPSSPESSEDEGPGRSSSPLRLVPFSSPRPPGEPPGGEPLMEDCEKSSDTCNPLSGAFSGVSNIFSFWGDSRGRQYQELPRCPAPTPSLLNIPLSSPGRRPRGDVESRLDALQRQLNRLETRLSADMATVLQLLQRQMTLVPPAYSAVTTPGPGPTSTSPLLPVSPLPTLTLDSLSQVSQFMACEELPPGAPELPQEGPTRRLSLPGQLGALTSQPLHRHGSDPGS
T1 sequence (Q12809 whole entry): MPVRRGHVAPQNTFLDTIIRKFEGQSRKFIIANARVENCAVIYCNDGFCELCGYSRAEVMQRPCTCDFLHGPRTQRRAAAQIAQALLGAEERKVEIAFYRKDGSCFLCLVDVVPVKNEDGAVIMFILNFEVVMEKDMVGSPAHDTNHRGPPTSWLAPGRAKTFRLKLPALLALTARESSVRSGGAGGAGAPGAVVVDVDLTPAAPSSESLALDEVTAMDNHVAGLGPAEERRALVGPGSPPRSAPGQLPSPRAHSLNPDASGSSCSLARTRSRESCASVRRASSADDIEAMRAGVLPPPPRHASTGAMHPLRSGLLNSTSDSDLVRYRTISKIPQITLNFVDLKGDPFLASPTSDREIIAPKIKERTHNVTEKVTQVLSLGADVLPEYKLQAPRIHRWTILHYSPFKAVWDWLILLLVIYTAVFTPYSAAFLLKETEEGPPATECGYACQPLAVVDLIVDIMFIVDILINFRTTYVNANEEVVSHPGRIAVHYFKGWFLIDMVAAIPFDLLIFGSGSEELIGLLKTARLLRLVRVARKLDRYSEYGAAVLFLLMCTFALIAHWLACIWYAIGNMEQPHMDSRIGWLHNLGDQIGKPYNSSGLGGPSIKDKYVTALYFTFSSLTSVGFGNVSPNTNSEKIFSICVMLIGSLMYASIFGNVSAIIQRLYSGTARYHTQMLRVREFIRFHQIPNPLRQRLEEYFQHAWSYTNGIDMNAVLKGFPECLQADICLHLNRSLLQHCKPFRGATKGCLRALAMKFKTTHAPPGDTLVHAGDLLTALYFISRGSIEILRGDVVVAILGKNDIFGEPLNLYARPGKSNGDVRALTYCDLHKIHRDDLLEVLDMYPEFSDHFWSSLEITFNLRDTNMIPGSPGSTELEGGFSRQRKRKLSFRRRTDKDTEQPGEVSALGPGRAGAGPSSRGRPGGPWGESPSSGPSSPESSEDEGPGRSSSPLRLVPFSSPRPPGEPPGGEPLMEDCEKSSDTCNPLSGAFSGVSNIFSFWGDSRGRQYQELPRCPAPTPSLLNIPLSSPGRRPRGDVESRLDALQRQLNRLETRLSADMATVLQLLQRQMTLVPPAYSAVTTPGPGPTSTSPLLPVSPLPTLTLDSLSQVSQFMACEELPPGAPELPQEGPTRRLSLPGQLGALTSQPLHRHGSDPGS
Chain of Y652A hERG (Q12809 whole entry Y652A): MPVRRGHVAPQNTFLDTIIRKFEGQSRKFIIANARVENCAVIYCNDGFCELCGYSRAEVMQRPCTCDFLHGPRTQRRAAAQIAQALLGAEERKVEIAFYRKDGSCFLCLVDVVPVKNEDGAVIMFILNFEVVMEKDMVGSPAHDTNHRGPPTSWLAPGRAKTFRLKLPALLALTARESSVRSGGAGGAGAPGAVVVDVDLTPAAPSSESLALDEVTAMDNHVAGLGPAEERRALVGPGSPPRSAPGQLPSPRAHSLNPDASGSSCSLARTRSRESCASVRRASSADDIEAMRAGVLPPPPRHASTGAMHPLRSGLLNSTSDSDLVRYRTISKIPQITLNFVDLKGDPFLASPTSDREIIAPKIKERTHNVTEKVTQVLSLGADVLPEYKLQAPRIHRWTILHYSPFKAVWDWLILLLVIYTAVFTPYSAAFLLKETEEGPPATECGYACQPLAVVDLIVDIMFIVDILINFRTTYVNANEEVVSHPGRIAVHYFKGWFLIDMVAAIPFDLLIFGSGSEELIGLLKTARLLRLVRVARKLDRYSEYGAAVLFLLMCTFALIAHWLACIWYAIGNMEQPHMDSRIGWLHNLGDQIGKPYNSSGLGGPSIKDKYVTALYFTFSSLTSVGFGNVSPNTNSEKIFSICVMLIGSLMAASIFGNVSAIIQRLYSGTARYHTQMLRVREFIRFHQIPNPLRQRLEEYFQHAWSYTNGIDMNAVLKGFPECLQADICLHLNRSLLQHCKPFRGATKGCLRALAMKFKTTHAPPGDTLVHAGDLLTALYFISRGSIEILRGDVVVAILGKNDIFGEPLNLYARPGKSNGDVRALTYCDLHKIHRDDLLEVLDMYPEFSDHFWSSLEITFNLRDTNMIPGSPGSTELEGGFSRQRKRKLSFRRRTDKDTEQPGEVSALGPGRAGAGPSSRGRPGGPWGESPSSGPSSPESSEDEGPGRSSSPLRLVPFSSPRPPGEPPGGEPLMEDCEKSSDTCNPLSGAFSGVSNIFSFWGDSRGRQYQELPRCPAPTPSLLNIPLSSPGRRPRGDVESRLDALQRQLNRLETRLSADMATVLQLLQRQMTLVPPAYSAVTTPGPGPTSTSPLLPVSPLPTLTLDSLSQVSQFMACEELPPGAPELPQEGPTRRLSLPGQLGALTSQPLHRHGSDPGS
Chain of N588K hERG (Q12809 whole entry N588K): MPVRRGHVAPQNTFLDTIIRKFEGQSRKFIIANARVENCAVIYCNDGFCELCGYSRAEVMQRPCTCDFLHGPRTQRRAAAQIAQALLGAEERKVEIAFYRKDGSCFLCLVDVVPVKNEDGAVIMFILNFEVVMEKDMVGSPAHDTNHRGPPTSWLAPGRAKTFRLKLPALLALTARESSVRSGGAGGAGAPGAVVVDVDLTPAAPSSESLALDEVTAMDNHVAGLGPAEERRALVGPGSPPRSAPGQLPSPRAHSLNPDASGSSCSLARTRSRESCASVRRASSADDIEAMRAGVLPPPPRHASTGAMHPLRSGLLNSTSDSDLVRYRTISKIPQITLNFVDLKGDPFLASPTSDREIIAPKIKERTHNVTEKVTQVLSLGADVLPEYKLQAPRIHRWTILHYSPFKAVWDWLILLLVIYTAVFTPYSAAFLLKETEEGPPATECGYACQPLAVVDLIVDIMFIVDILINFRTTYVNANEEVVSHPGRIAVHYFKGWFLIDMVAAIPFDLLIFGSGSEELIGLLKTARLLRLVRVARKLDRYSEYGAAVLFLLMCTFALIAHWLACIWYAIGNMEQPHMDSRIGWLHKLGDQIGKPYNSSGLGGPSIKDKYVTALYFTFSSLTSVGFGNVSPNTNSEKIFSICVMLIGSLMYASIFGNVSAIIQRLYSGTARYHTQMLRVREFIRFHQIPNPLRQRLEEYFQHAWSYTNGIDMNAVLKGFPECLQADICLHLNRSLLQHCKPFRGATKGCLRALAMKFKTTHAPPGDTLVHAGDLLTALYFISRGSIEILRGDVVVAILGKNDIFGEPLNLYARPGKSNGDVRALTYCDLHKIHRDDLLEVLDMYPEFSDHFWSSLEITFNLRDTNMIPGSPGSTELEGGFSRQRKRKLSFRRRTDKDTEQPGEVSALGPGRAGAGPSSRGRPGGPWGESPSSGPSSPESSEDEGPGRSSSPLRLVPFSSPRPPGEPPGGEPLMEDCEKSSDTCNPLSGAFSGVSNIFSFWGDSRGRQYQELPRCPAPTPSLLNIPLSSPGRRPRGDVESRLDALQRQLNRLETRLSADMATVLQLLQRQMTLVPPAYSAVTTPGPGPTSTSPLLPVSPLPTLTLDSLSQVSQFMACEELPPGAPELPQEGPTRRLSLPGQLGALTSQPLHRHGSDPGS

C=C[C@H]1C[N@@]2CC[C@H]1C[C@@H]2[C@@H](O)c1ccnc2ccc(OC)cc12 [Quinidine]
Increase in IhERG IC50 with F656V (F656V hERG): ~ 27 fold

O=C(NCCN1CCOCC1)c1cc(OCC(F)(F)F)ccc1OCC(F)(F)F [NU-Flec]
pKa [1]: 6.3
Fraction of unblocked IhERG [2, 7]: 75.8 ± 4.4%
Fraction of unblocked IhERG [2, 8]: 50.2 ± 4.3%
Whole-cell IhERG current density [2, 9]: 283.2 ± 63.4 pA/pF
Whole-cell IhERG current density [2, 10]: 359.8 ± 56.1 pA/pF

O=C(NCC1CCCCN1)c1cc(OCC(F)(F)F)ccc1OCC(F)(F)F (centres unmarked) [flecainide, Flecainide acetate]
IC50 [3]: 2.1 µM
IC50 (L-type calcium current): ~20 µM
Increase in blocking potency on mutating V505 to phenylalanine [4]: 9 fold

C[N+]1(C)CCCCC1CNC(=O)c1cc(OCC(F)(F)F)ccc1OCC(F)(F)F (centres unmarked) [QX-Flec]
Effect on density of inward F656A IhERG tails vs drug-free control (F656A hERG [5]): ineffective; also recorded: no significant difference; also recorded: little inhibition
Fraction of unblocked IhERG [2, 7]: 72.2 ± 4.6%
Fraction of unblocked IhERG [2, 8]: 54.6 ± 3.5%
Whole-cell IhERG current density [2, 9]: 55.3 ± 5.9 pA/pF
Whole-cell IhERG current density [2, 10]: 9.3 ± 1.9 pA/pF

CC(C)NC[C@@H](O)c1ccc(NS(C)(=O)=O)cc1 [D-Sotalol]
Fold-change in IC50 N588K compared to WT IhERG (N588K hERG): 20 fold

CC[C@H]1[C@@H]2C[C@H]3[C@@H]4N(C)c5ccccc5[C@]45C[C@@H]([C@H]2[C@H]5O)N3[C@@H]1O [ajmaline]
Inhibitory action on Y652A IhERG (Y652A hERG): ineffective
Inhibitory action on F656A IhERG (F656A hERG [6]): ineffective

Reference: PMC4564290 (Journal of Molecular and Cellular Cardiology, 2015)
